Assay results published in patent US7138361B2, “Herbicidal heterocycles” (E. I. du Pont de Nemours and Company, priority 2000, dated 2006).

What was measured:
Type in all cases: in vivo
[1] = tested on: duck salad (Heteranthera limosa); assay: Test C flooded paddy test; settings: for Ducksalad plant response rating: Flooded Paddy, scale 0 to 100, 0 no effect, 100 complete control; for Plant response rating, Ducksalad: flooded paddy test, scale 0 to 100 (0 no effect, 100 complete control)
Summary of the method: (§1)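 Plants were grown to the 2-leaf stage under flooded paddy conditions and treated. They were then kept in a greenhouse for 12 to 14 days and visually rated against untreated controls on a 0–100 scale, where 0 is no effect and 100 is complete control.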

[2] = tested on: barnyardgrass (Echinochloa crus-galli); assay: Test C flooded paddy test; settings: for Barnyardgrass plant response rating: Flooded Paddy, scale 0 to 100, 0 no effect, 100 complete control; for Plant response rating, Barnyardgrass: flooded paddy test, scale 0 to 100 (0 no effect, 100 complete control)
Summary of the method: as §1

rice (Oryza saliva) = assay: Test C flooded paddy test; settings: for Rice plant response rating: Flooded Paddy, scale 0 to 100, 0 no effect, 100 complete control; for Plant response rating, Rice: flooded paddy test, scale 0 to 100 (0 no effect, 100 complete control)
Summary of the method: as §1

[3] = tested on: smallflower flatsedge (Cyperus difformis); assay: Test C flooded paddy test; settings: for Flatsedge plant response rating: Flooded Paddy, scale 0 to 100, 0 no effect, 100 complete control; for Plant response rating, Flatsedge: flooded paddy test, scale 0 to 100 (0 no effect, 100 complete control)
Summary of the method: as §1

[4] = tested on: wheat (Triticum aestivum); assay: Test B postemergence; settings: 13 to 15 days
Summary of the method: (§2)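 Pre: seeded pots sprayed, chemical in non-phytotoxic solvent/surfactant mix. Post: plants 2–18 cm, 1–4 leaf, same formulation. Greenhouse 13–15 d; visual % control vs untreated, 0–100 scale.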

[5] = tested on: barnyardgrass (Echinochloa crus-galli); assay: Test B postemergence; settings: 13 to 15 days
Summary of the method: as §2

wild oat (Avena fatua) = assay: Test B postemergence; settings: 13 to 15 days
Summary of the method: as §2

corn (Zea mays) [6] = assay: Test B postemergence; settings: 13 to 15 days
Summary of the method: as §2

[7] = tested on: woolly cupgrass (Eriochloa villosa); assay: Test C preemergence; settings: for Plant response rating, Cupgrass, Woolly: scale 0 to 100, 0 no effect, 100 complete control; for Plant response rating (0 to 100), Cupgrass, Woolly: visual evaluation after 12 to 14 days
Summary of the method: (§3)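 Test chemicals, formulated in a non-phytotoxic solvent mixture with surfactant, were applied preemergence to planted seeds or postemergence to plants 2 to 18 cm tall (1- to 4-leaf stage). After 12 to 14 days in a greenhouse, injury was visually rated against untreated controls on a 0–100 scale.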

[8] = tested on: yellow nutsedge (Cyperus esculentus); assay: Test C preemergence; settings: for Plant response rating, Nutsedge: scale 0 to 100, 0 no effect, 100 complete control
Summary of the method: as §3

kochia (Kochia scoparia) = assay: Test C preemergence; settings: for Plant response rating, Kochia: scale 0 to 100, 0 no effect, 100 complete control; for Plant response rating (0 to 100), Kochia: visual evaluation after 12 to 14 days
Summary of the method: as §3

soybean (Glycine max) = assay: Test C preemergence; settings: preemergence; for Plant response rating, Soybean: scale 0 to 100, 0 no effect, 100 complete control
Summary of the method: as §3

[9] = tested on: lambsquarters (Chenopodium album); assay: Test C preemergence; settings: for Plant response rating, Lambsquarters: scale 0 to 100, 0 no effect, 100 complete control
Summary of the method: as §3

Nightshade [10] = assay: Test C preemergence; settings: scale 0 to 100, 0 no effect, 100 complete control
corn (Zea mays) [11] = assay: Test C preemergence; settings: for Plant response rating, Corn: scale 0 to 100, 0 no effect, 100 complete control; for Plant response rating (0 to 100), Corn: visual evaluation after 12 to 14 days
Summary of the method: as §3

[12] = tested on: johnsongrass (Sorghum halepense); assay: Test C preemergence; settings: for Plant response rating, Johnsongrass: scale 0 to 100, 0 no effect, 100 complete control; for Plant response rating (0 to 100), Johnsongrass: visual evaluation after 12 to 14 days
Summary of the method: as §3

[13] = tested on: pigweed (Amaranthus retroflexus); assay: Test C preemergence; settings: preemergence; for Plant response rating, Pigweed: scale 0 to 100, 0 no effect, 100 complete control
Summary of the method: as §3

Sunflower = assay: Test C preemergence; settings: scale 0 to 100, 0 no effect, 100 complete control
Nightshade [14] = assay: Test C preemergence; settings: Rate 500 g/ha, visual evaluation after 12 to 14 days
[15] = Rate 125 g/ha, scale 0 (no effect) to 100 (complete control)
[16] = Rate 500 g/ha, scale 0 to 100, 0 is no effect, 100 is complete control
[17] = preemergence, Rate 500 g/ha, visual evaluation after 12 to 14 days
[18] = Rate 500 g/ha, visual evaluation after 12 to 14 days

Structure (SMILES): CCC(C)c1ccn(C2OCN(c3cccc(OC(F)(F)F)c3)C2=O)n1 (stereo not drawn) [Compound 67]
- Ducksalad plant response rating ([1]; Rate 250 g/ha): 100
- Ducksalad plant response rating ([1]; Rate 500 g/ha): 100
- Plant response rating, Ducksalad ([1]; Rate 62 g/ha): 50
- Plant response rating, Ducksalad ([1]; Rate 125 g/ha): 90
- Barnyardgrass plant response rating ([2]; Rate 250 g/ha): 100
- Barnyardgrass plant response rating ([2]; Rate 500 g/ha): 100
- Plant response rating, Barnyardgrass ([2]; Rate 62 g/ha): 60
- Plant response rating, Barnyardgrass ([2]; Rate 125 g/ha): 70
- Rice plant response rating (rice (Oryza saliva); Rate 250 g/ha): 60
- Rice plant response rating (rice (Oryza saliva); Rate 500 g/ha): 90
- Plant response rating, Rice (rice (Oryza saliva); Rate 62 g/ha): 20
- Plant response rating, Rice (rice (Oryza saliva); Rate 125 g/ha): 40
- Flatsedge plant response rating ([3]; Rate 250 g/ha): 100
- Flatsedge plant response rating ([3]; Rate 500 g/ha): 100
- Plant response rating, Flatsedge ([3]; Rate 62 g/ha): 100
- Plant response rating, Flatsedge ([3]; Rate 125 g/ha): 100
- Plant response rating, Wheat [4, 15]: 0
- Plant response rating, Wheat [4, 16]: 0
- Plant response rating, Barnyardgrass [5, 15]: 90
- Plant response rating, Barnyardgrass [5, 16]: 100
- Plant response rating, Wild Oat (wild oat (Avena fatua); [15]): 0
- Plant response rating, Wild Oat (wild oat (Avena fatua); [16]): 0
- Plant response rating, Corn (corn (Zea mays) [6]; [15]): 0
- Plant response rating, Corn (corn (Zea mays) [6]; [16]): 0
- Plant response rating, Cupgrass, Woolly ([7]; Rate 62 g/ha): 90
- Plant response rating (0 to 100), Cupgrass, Woolly ([7]; preemergence, Rate 250 g/ha): 100
- Plant response rating (0 to 100), Cupgrass, Woolly ([7]; preemergence, Rate 500 g/ha): 100
- Plant response rating, Cupgrass, Woolly ([7]; preemergence, Rate 125 g/ha): 70
- Plant response rating, Nutsedge ([8]; Rate 62 g/ha): 0
- Plant response rating (0 to 100), Nutsedge [8, 17]: 20
- Plant response rating, Nutsedge ([8]; preemergence, Rate 125 g/ha): 40
- Plant response rating, Nutsedge ([8]; preemergence, Rate 250 g/ha): 0
- Plant response rating, Kochia (kochia (Kochia scoparia); Rate 62 g/ha): 90
- Plant response rating (0 to 100), Kochia (kochia (Kochia scoparia); preemergence, Rate 250 g/ha): 90
- Plant response rating (0 to 100), Kochia (kochia (Kochia scoparia); preemergence, Rate 500 g/ha): 100
- Plant response rating, Kochia (kochia (Kochia scoparia); preemergence, Rate 125 g/ha): 100
- Plant response rating (0 to 100), Soybean (soybean (Glycine max); [18]): 0
- Plant response rating, Soybean (soybean (Glycine max); Rate 125 g/ha): 0
- Plant response rating, Soybean (soybean (Glycine max); Rate 250 g/ha): 0
- Plant response rating, Lambsquarters ([9]; Rate 62 g/ha): 100
- Plant response rating (0 to 100), Lambsquarters [9, 17]: 100
- Plant response rating, Lambsquarters ([9]; preemergence, Rate 125 g/ha): 100
- Plant response rating, Lambsquarters ([9]; preemergence, Rate 250 g/ha): 100
- Plant response rating, Nightshade (Nightshade [10]; Rate 62 g/ha): 0
- Plant response rating, Nightshade (Nightshade [10]; Rate 125 g/ha): 70
- Plant response rating, Nightshade (Nightshade [10]; Rate 250 g/ha): 80
- Plant response rating, Corn (corn (Zea mays) [11]; Rate 62 g/ha): 0
- Plant response rating (0 to 100), Corn (corn (Zea mays) [11]; preemergence, Rate 250 g/ha): 0
- Plant response rating (0 to 100), Corn (corn (Zea mays) [11]; preemergence, Rate 500 g/ha): 100
- Plant response rating, Corn (corn (Zea mays) [11]; preemergence, Rate 125 g/ha): 0
- Plant response rating, Johnsongrass ([12]; Rate 62 g/ha): 30
- Plant response rating (0 to 100), Johnsongrass ([12]; preemergence, Rate 250 g/ha): 100
- Plant response rating (0 to 100), Johnsongrass ([12]; preemergence, Rate 500 g/ha): 100
- Plant response rating, Johnsongrass ([12]; preemergence, Rate 125 g/ha): 60
- Plant response rating (0 to 100), Pigweed [13, 18]: 80
- Plant response rating, Pigweed ([13]; Rate 125 g/ha): 90
- Plant response rating, Pigweed ([13]; Rate 250 g/ha): 80
- Plant response rating, Sunflower (Sunflower; Rate 125 g/ha): 0
- Plant response rating, Sunflower (Sunflower; Rate 250 g/ha): 0
- Plant response rating (0 to 100), Nightshade (Nightshade [14]): 60
